Measured values reported in ChEMBL document CHEMBL3124838, “Discovery of 6-aryl-azabenzimidazoles that inhibit the TBK1/IKK-ε kinases” (Bioorg Med Chem Lett, 2014).

Experiments:
[1] = biological target: T1, Cytoplasmic tyrosine-protein kinase BMX (Homo sapiens) (UniProt P51813); assay: Inhibition of human BMX assessed as residual activity at 1 uM relative to control
T1 sequence (whole entry): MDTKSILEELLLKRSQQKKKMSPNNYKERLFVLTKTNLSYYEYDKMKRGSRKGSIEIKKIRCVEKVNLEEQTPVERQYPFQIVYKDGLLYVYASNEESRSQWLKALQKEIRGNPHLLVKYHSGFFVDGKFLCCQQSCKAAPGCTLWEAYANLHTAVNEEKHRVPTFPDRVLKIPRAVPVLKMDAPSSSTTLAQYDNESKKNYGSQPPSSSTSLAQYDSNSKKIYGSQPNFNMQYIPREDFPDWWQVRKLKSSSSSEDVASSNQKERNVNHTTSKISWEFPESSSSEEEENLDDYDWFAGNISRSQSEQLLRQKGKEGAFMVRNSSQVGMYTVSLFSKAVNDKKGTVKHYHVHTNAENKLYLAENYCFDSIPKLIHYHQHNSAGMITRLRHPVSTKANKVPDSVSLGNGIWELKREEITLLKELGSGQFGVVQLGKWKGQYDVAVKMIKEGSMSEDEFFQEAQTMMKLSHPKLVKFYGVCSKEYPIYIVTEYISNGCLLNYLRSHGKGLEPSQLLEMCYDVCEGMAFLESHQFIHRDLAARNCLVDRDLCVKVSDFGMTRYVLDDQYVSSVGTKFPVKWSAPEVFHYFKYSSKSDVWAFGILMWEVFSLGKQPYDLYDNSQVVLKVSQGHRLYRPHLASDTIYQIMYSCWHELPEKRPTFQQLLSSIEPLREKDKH

[2] = biological target: Insulin receptor (Homo sapiens) (UniProt P06213); assay: Inhibition of human activated IR assessed as residual activity at 1 uM relative to control
Insulin receptor (Homo sapiens), sequence (P06213 28-758 limits assumed): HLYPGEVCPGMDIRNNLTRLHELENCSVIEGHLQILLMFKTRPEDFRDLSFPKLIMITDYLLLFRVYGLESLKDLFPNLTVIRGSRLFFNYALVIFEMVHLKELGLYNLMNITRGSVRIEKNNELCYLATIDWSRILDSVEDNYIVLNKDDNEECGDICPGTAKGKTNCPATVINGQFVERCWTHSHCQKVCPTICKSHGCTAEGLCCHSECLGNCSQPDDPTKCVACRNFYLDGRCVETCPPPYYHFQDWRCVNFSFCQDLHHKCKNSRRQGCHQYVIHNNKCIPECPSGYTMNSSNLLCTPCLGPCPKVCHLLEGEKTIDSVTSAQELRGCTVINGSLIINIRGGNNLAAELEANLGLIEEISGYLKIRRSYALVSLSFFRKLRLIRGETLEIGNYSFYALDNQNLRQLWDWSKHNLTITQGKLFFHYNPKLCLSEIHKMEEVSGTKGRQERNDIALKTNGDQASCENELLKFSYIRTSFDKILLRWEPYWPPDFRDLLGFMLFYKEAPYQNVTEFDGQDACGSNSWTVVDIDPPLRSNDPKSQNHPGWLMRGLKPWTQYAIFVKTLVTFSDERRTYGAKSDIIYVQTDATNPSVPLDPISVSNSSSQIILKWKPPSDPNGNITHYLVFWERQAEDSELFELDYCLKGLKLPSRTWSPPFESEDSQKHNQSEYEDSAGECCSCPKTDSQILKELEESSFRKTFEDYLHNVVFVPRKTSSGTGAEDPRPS
Insulin receptor (Homo sapiens), sequence (P06213 763-1382 limits assumed): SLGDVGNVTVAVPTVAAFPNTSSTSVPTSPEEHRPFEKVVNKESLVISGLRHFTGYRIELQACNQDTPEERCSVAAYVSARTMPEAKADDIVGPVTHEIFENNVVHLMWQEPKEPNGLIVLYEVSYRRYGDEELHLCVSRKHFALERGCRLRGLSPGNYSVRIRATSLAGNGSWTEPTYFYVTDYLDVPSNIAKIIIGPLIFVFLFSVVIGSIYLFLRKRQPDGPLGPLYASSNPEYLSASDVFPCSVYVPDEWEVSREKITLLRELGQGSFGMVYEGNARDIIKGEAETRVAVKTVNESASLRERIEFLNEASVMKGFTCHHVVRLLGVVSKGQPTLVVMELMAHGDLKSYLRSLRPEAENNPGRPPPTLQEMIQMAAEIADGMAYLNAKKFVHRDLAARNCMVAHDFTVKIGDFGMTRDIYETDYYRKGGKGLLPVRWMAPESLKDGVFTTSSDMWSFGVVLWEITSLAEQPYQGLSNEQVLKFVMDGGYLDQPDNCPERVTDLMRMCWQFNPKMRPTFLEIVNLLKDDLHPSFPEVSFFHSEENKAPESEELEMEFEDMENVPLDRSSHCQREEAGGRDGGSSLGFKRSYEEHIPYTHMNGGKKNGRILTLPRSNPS

[3] = biological target: Serine/threonine-protein kinase PAK 5 (Homo sapiens) (UniProt Q9P286); assay: Inhibition of human PAK5 assessed as residual activity at 1 uM relative to control
Serine/threonine-protein kinase PAK 5 (Homo sapiens), sequence (Q9P286 whole entry, looked up): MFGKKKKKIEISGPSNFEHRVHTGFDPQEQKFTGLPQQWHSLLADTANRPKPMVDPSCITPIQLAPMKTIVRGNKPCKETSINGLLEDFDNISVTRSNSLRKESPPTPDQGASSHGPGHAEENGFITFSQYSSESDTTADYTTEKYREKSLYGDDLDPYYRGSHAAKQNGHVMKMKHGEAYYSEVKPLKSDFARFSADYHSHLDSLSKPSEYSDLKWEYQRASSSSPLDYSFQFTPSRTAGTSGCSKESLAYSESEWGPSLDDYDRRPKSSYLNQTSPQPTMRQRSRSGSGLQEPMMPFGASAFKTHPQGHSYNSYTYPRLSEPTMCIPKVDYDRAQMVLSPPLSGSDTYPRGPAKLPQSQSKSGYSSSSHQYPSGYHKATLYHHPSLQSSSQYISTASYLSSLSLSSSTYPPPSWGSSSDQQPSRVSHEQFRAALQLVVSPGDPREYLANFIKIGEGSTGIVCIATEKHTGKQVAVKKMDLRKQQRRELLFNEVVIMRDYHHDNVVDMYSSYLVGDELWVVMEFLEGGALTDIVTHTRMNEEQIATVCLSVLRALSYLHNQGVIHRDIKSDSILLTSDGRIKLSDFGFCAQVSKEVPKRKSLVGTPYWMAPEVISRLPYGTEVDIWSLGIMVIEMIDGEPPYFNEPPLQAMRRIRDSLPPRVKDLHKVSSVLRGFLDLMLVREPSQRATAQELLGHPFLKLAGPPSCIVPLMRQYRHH

[4] = biological target: Proto-oncogene tyrosine-protein kinase ROS (Homo sapiens) (UniProt P08922); assay: Inhibition of human ROS assessed as residual activity at 1 uM relative to control
[5] = biological target: Insulin-like growth factor 1 receptor (Homo sapiens) (UniProt P08069); assay: Inhibition of human activated IGF-1R assessed as residual activity at 1 uM relative to control
Insulin-like growth factor 1 receptor (Homo sapiens), sequence (P08069 31-736 limits assumed): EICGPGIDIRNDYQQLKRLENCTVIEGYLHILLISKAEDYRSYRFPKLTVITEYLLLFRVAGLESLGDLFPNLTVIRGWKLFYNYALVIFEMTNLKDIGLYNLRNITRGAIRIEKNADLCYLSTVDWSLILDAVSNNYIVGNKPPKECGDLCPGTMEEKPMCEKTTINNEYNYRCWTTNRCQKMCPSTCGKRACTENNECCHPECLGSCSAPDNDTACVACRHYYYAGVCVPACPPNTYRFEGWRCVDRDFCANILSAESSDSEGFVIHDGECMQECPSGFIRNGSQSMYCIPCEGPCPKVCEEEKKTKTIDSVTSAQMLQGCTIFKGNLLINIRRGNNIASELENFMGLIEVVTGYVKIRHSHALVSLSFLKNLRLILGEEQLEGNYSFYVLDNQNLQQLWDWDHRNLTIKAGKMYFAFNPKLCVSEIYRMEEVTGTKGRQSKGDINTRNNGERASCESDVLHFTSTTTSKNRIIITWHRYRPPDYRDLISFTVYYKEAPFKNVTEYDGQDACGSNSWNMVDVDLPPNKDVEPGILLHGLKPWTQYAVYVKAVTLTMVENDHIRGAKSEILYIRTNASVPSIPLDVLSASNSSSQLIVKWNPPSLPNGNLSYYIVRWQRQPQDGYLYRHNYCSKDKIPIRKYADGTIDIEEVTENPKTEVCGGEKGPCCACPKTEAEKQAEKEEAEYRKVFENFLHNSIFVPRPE
Insulin-like growth factor 1 receptor (Homo sapiens), sequence (P08069 741-1367 limits assumed): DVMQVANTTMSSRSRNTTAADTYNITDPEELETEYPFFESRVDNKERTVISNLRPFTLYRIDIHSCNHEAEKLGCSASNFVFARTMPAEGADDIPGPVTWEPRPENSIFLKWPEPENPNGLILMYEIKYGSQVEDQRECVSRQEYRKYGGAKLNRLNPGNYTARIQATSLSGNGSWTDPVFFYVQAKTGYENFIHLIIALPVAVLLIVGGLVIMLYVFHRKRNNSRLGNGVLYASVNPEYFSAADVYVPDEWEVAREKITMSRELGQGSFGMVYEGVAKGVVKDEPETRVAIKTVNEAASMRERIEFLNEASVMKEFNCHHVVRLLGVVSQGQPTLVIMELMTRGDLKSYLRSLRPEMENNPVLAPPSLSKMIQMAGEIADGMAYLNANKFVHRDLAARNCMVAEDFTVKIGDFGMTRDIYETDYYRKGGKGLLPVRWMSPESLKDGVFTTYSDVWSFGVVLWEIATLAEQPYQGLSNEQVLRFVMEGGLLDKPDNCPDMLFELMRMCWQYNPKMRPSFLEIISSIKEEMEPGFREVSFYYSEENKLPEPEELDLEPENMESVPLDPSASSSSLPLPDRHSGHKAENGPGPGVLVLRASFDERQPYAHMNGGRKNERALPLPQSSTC

[6] = biological target: T2, Mitogen-activated protein kinase kinase kinase 7 (Homo sapiens) (UniProt O43318); assay: Inhibition of human TAK1 assessed as residual activity at 1 uM relative to control
T2 sequence (whole entry): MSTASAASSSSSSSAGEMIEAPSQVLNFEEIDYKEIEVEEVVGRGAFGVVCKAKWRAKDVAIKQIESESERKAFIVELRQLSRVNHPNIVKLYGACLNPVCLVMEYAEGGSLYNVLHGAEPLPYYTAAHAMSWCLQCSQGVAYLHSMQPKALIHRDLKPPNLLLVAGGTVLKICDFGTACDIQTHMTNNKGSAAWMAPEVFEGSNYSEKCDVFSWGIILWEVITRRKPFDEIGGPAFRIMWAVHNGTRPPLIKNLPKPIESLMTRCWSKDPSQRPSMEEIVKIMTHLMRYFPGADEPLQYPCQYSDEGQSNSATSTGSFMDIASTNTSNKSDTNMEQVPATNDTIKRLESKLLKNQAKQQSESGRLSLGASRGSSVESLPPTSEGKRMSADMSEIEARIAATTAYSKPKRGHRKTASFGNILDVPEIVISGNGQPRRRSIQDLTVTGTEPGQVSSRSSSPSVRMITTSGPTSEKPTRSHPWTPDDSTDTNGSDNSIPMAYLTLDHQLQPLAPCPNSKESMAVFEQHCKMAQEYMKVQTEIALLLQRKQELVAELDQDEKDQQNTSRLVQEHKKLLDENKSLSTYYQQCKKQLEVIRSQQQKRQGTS

[7] = biological target: T3, Ephrin type-B receptor 4 (Homo sapiens) (UniProt P54760); assay: Inhibition of human EPHB4 assessed as residual activity at 1 uM relative to control
T3 sequence (whole entry): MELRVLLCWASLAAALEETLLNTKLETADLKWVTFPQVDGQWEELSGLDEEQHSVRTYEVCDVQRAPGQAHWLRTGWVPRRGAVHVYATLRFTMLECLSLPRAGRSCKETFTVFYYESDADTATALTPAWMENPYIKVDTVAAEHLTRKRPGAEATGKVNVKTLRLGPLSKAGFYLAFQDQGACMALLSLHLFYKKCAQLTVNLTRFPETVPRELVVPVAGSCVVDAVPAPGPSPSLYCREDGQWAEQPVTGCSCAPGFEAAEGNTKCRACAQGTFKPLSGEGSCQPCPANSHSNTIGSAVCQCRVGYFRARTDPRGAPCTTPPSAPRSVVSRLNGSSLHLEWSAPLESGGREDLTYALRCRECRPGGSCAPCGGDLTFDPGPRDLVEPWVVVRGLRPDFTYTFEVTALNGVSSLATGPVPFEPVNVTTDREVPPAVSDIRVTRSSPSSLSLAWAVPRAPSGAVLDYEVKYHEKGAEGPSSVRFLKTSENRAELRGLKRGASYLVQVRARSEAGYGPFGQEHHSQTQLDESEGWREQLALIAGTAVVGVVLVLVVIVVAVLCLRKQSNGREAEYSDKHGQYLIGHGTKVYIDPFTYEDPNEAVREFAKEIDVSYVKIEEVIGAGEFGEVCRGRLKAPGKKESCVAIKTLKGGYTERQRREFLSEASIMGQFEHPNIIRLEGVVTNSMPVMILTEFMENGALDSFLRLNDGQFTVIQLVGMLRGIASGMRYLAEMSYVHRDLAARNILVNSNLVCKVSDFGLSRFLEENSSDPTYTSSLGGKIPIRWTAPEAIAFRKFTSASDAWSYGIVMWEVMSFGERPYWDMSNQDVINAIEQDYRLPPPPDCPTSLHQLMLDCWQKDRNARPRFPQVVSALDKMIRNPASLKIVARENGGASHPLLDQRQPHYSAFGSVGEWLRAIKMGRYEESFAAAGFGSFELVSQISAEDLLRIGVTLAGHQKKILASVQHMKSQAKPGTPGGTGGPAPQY

[8] = biological target: Tyrosine-protein kinase Blk (Homo sapiens) (UniProt P51451); assay: Inhibition of human BLK assessed as residual activity at 1 uM relative to control
Tyrosine-protein kinase Blk (Homo sapiens), sequence (P51451 2-505 limits assumed): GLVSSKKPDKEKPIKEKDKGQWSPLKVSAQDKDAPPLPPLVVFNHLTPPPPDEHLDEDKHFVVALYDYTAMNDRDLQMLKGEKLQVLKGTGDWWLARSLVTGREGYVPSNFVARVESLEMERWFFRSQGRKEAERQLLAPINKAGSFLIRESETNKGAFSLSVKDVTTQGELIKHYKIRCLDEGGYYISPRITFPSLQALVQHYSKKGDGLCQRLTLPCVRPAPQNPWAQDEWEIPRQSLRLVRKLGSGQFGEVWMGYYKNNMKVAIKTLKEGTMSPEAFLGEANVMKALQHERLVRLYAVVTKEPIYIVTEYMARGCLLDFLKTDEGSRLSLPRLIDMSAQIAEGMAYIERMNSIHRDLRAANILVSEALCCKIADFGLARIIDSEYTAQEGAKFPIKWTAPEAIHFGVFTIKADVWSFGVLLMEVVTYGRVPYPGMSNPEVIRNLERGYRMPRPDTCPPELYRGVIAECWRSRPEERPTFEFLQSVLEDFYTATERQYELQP

[9] = biological target: Tyrosine-protein kinase Yes (Homo sapiens) (UniProt P07947); assay: Inhibition of human YES assessed as residual activity at 1 uM relative to control
Tyrosine-protein kinase Yes (Homo sapiens), sequence (P07947 2-543 limits assumed): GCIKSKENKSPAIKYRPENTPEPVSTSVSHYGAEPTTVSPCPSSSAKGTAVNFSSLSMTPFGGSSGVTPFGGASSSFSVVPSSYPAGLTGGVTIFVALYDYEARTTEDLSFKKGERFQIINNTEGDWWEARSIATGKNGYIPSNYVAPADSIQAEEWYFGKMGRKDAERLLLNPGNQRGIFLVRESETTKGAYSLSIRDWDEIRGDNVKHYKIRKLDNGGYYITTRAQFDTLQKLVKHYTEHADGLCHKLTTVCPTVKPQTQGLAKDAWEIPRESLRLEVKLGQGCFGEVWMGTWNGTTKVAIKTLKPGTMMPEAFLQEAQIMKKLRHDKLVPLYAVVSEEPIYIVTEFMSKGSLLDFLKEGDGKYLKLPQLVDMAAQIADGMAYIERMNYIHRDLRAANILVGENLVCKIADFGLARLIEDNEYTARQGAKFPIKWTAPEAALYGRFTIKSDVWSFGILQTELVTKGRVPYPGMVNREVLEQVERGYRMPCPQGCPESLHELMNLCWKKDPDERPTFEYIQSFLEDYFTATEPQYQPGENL

Activity [1] [%] | Activity [2] [%] | Activity [3] [%] | Activity [4] [%] | Activity [5] [%] | Activity [6] [%] | Activity [7] [%] | Activity [8] [%] | Activity [9] [%] | Structure (SMILES)
105 | 100 | 86 | 82 | 91 | 85 | 95 | 13 | 5 | COc1ccc(-c2nc3cc(-c4csc(C(=O)NCCC(C)C)c4)cnc3[nH]2)cc1
100 | 96 | 94 | 81 | 80 | 79 | 79 | 48 | 15 | COc1ccc(-c2nc3cc(-c4csc(C(=O)NCC(C)(C)C)c4)cnc3[nH]2)cc1
92 | 109 | 97 | 93 | 95 | 85 | 74 | 25 | 6 | COc1ccc(-c2nc3cc(-c4csc(C(=O)NCC(C)C)c4)cnc3[nH]2)cc1
